pIC50: −log10 of the molar value.
What was measured:
Assay type in all cases: biochemical
Details in all cases: wild-type un-phosphorylated protein; pre-incubated for 4 hours; ATP near or below Km
[1] = biological target: wild-type un-phosphorylated FGFR3 (Homo sapiens, UniProt P22607); test: FGFR Enzymatic Assay (FRET peptide phosphorylation), FGFR3
Experimental: (§1) The inhibitor potency of the exemplified compounds was determined in an enzyme discontinuous assay that measures peptide phosphorylation using FRET measurements to detect product formation. Inhibitors were serially diluted in DMSO and a volume of 0.2 μL was transferred to the wells of a 384-well plate. […] Appropriate controls (enzyme blank and enzyme with no inhibitor) were included on the plate. […] The ATP Km values were pre-determined in a separate series of experiments. […] The plate was allowed to equilibrate for ˜10 minutes at ambient temperature before scanning on a PheraStar plate reader (BMG Labtech) instrument.
(§2) Either GraphPad prism or XLfit was used to analyze the data. The IC50 values were derived by fitting the data to a four parameter logistic equation producing a sigmoidal dose-response curve with a variable Hill coefficient. Prism equation: Y=Bottom+(Top−Bottom)/(1+10^((LogIC50−X)*Hill slope)); XLfit equation: Y=(A+((B−A)/(1+((X/C)^D)))) where X is the logarithm of inhibitor concentration and Y is the response.

[2] = biological target: wild-type un-phosphorylated FGFR1 (Homo sapiens, UniProt P11362); test: FGFR Enzymatic Assay (FRET peptide phosphorylation), FGFR1
Experimental: as §1, §2

[3] = biological target: wild-type un-phosphorylated FGFR2 (Homo sapiens, UniProt P21802); test: FGFR Enzymatic Assay (FRET peptide phosphorylation), FGFR2
Experimental: as §1, §2
The data in Table 1 was measured in wild-type un-phosphorylated FGFR1, FGFR2, FGFR3 and FGFR4 protein.

Chain of wild-type un-phosphorylated FGFR1 (P11362 22-822): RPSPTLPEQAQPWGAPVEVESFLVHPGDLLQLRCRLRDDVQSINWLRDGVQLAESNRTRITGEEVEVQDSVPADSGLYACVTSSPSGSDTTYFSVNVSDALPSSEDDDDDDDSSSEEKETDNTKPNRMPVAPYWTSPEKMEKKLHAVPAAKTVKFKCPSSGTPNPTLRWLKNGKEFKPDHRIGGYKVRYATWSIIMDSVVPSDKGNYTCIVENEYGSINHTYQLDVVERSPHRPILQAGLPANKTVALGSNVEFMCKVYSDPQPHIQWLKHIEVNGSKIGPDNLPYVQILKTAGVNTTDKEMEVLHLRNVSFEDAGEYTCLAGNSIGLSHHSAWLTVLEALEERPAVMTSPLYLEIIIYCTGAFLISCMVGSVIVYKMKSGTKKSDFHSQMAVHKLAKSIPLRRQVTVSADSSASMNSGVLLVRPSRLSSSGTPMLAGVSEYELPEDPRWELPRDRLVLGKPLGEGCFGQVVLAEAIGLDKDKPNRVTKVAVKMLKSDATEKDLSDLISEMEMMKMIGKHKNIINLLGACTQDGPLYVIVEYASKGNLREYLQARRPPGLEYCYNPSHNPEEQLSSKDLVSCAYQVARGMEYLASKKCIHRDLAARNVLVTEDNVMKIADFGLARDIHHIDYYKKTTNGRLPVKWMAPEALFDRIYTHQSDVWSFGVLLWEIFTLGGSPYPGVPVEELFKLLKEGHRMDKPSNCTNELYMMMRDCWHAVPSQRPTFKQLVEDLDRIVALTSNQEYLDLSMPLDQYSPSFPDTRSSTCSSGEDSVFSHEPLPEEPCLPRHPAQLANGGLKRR
Chain of wild-type un-phosphorylated FGFR2 (P21802 22-821): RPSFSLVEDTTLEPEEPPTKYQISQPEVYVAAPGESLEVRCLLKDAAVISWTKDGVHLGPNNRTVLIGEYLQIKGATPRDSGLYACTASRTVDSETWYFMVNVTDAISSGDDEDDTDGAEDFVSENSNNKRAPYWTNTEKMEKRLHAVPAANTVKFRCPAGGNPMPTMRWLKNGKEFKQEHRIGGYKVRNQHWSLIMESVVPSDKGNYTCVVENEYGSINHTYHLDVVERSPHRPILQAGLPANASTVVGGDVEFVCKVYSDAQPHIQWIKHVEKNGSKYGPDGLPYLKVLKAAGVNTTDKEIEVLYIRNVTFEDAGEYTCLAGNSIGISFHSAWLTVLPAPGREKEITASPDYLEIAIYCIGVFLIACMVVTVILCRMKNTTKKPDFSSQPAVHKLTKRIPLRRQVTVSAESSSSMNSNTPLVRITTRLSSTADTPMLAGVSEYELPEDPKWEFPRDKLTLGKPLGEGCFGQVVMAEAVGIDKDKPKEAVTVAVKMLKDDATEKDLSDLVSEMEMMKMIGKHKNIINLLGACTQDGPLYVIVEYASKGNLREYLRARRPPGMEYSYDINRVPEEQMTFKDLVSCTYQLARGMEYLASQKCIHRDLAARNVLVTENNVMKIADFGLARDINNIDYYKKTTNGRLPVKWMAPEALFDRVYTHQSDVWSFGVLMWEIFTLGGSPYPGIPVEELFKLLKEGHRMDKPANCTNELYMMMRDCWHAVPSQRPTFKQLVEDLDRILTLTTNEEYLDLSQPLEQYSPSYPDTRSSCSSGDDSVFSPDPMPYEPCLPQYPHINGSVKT
Chain of wild-type un-phosphorylated FGFR3 (P22607 23-806): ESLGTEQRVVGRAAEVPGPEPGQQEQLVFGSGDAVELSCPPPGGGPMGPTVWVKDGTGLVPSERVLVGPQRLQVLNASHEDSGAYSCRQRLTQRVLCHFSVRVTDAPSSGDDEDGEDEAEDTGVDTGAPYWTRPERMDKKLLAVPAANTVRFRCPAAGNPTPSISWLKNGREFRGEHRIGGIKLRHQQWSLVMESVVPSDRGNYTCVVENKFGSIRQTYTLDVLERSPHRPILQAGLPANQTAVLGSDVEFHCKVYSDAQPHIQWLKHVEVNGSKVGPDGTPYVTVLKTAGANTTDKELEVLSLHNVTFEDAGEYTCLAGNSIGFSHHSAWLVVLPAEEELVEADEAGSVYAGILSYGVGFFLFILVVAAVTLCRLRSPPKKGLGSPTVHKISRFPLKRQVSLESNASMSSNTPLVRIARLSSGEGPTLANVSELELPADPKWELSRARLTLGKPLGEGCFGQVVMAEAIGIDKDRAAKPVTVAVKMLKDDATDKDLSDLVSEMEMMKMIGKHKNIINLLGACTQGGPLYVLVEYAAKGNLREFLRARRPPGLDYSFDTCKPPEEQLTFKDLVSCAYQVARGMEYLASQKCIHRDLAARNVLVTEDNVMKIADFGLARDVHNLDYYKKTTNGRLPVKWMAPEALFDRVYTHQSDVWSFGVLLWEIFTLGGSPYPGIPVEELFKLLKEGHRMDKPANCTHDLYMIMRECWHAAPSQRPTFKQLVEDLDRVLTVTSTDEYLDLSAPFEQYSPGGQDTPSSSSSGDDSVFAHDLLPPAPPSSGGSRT

Row | pIC50 [1] | pIC50 [2] | pIC50 [3] | SMILES
1 | > 8.00 | 7.00 to 8.00 | > 8.00 | CNC(=O)c1cc(-c2cnc3cc(-c4cnn(C(C)(C)C#N)c4)c(O[C@H]4CCOC4)nn23)c(F)c(C(F)F)c1 [Example 26, (S)-3-(7-(1-(2-Cyanopropan-2-yl)-1H-pyrazol-4-yl)-6-((tetrahydrofuran-3-yl)oxy)imidazo[1,2-b]pyridazin-3-yl)-5-(difluoromethyl)-4-fluoro-N-methylbenzamide]
2 | 7.00 to 8.00 | 7.00 to 8.00 | 7.00 to 8.00 | CNC(=O)c1cc(-c2cnc3cc(-c4cnn5ccccc45)c(O[C@H]4CCOC4)nn23)c(F)c(C(F)F)c1 [Example 27, (S)-3-(Difluoromethyl)-4-fluoro-N-methyl-5-(7-(pyrazolo[1,5-a]pyridin-3-yl)-6-((tetrahydrofuran-3-yl)oxy)imidazo[1,2-b]pyridazin-3-yl)benzamide]
3 | > 8.00 | 7.00 to 8.00 | > 8.00 | CNC(=O)c1cc(-c2cnc3cc(-c4cnn(Cc5cccnc5)c4)c(O[C@H]4CCOC4)nn23)c(F)c(C(F)F)c1 [Example 29, (S)-3-(Difluoromethyl)-4-fluoro-N-methyl-5-(7-(1-(pyridin-3-ylmethyl)-1H-pyrazol-4-yl)-6-((tetrahydrofuran-3-yl)oxy)imidazo[1,2-b]pyridazin-3-yl)benzamide]
4 | 7.00 to 8.00 | ≤ 6.40 | 7.00 to 8.00 | CNC(=O)c1cc(-c2cnc3cc(-c4ccc(C)c(C#N)c4)c(O[C@H]4CCOC4)nn23)c(F)c(C(F)F)c1 [Example 31, (S)-3-(7-(3-Cyano-4-methylphenyl)-6-((tetrahydrofuran-3-yl)oxy)imidazo[1,2-b]pyridazin-3-yl)-5-(difluoromethyl)-4-fluoro-N-methylbenzamide]
5 | > 8.00 | 6.40 to 7.00 | > 8.00 | CNC(=O)c1cc(-c2cnc3cc(-c4ccc(N5CCCC5)nc4)c(O[C@H]4CCOC4)nn23)c(F)c(C(F)F)c1 [Example 32, (S)-3-(Difluoromethyl)-4-fluoro-N-methyl-5-(7-(6-(pyrrolidin-1-yl)pyridin-3-yl)-6-((tetrahydrofuran-3-yl)oxy)imidazo[1,2-b]pyridazin-3-yl)benzamide]
6 | > 8.00 | > 8.00 | > 8.00 | CNC(=O)c1cc(-c2cnc3cc(-c4cnn([C@H]5CC[C@H](O)CC5)c4)c(O[C@H]4CCOC4)nn23)c(F)c(C(F)F)c1 [Example 34, 3-(Difluoromethyl)-4-fluoro-5-(7-(1-((1r,4S)-4-hydroxycyclohexyl)-1H-pyrazol-4-yl)-6-(((S)-tetrahydrofuran-3-yl)oxy)imidazo[1,2-b]pyridazin-3-yl)-N-methylbenzamide]
7 | > 8.00 | 6.40 to 7.00 | 7.00 to 8.00 | CNC(=O)c1cc(-c2cnc3cc(-c4ccc(C(C)(C)O)nc4)c(O[C@H]4CCOC4)nn23)c(F)c(C(F)F)c1 [Example 35, (S)-3-(Difluoromethyl)-4-fluoro-5-(7-(6-(2-hydroxypropan-2-yl)pyridin-3-yl)-6-((tetrahydrofuran-3-yl)oxy)imidazo[1,2-b]pyridazin-3-yl)-N-methylbenzamide]

Second part, the compound before the results:

Row | SMILES | pIC50 [1] | pIC50 [2] | pIC50 [3]
8 | CNC(=O)c1cc(F)c(F)c(-c2cnc3cc(-c4cnn(C)c4)c(OCCOC)nn23)c1 [Example 20, 3,4-Difluoro-5-(6-(2-methoxyethoxy)-7-(1-methyl-1H-pyrazol-4-yl)imidazo[1,2-b]pyridazin-3-yl)-N-methylbenzamide] | > 8.00 | 7.00 to 8.00 | > 8.00
9 | CNC(=O)c1cc(F)c(F)c(-c2cnc3cc(-c4ccc(C)nc4)c(O[C@H]4CCOC4)nn23)c1 [Example 21, (S)-3,4-Difluoro-N-methyl-5-(7-(6-methylpyridin-3-yl)-6-((tetrahydrofuran-3-yl)oxy)imidazo[1,2-b]pyridazin-3-yl)benzamide] | > 8.00 | 6.40 to 7.00 | 7.00 to 8.00
10 | CNC(=O)c1cc(F)c(F)c(-c2cnc3cc(-c4cnn(C5COC5)c4)c(O[C@H]4CCOC4)nn23)c1 [Example 23, (S)-3,4-Difluoro-N-methyl-5-(7-(1-(oxetan-3-yl)-1H-pyrazol-4-yl)-6-((tetrahydrofuran-3-yl)oxy)imidazo[1,2-b]pyridazin-3-yl)benzamide] | > 8.00 | 7.00 to 8.00 | > 8.00
11 | CNC(=O)c1cc(F)c(F)c(-c2cnc3cc(-c4cnn(C(C)C)c4)c(O[C@H]4CCOC4)nn23)c1 [Example 24, (S)-3,4-Difluoro-5-(7-(1-isopropyl-1H-pyrazol-4-yl)-6-((tetrahydrofuran-3-yl)oxy)imidazo[1,2-b]pyridazin-3-yl)-N-methylbenzamide] | > 8.00 | > 8.00 | > 8.00
12 | CNC(=O)c1cc(F)c(F)c(-c2cnc3cc(-c4cnn(C5CCC5)c4)c(O[C@H]4CCOC4)nn23)c1 [Example 25, (S)-3-(7-(1-Cyclobutyl-1H-pyrazol-4-yl)-6-((tetrahydrofuran-3-yl)oxy)imidazo[1,2-b]pyridazin-3-yl)-4,5-difluoro-N-methylbenzamide] | > 8.00 | > 8.00 | > 8.00
13 | CNC(=O)c1cc(-c2cnc3cc(-c4cnn5c4CNCC5)c(O[C@H]4CCOC4)nn23)c(F)c(C(F)F)c1 [Example 28, (S)-3-(Difluoromethyl)-4-fluoro-N-methyl-5-(6-((tetrahydrofuran-3-yl)oxy)-7-(4,5,6,7-tetrahydropyrazolo[1,5-a]pyrazin-3-yl)imidazo[1,2-b]pyridazin-3-yl)benzamide] | 7.00 to 8.00 | ≤ 6.40 | 7.00 to 8.00
14 | CNC(=O)c1cc(-c2cnc3cc(-c4ccc(N5CCCC5=O)nc4)c(O[C@H]4CCOC4)nn23)c(F)c(C(F)F)c1 [Example 33, (S)-3-(Difluoromethyl)-4-fluoro-N-methyl-5-(7-(6-(2-oxopyrrolidin-1-yl)pyridin-3-yl)-6-((tetrahydrofuran-3-yl)oxy)imidazo[1,2-b]pyridazin-3-yl)benzamide] | > 8.00 | 6.40 to 7.00 | 7.00 to 8.00
15 | CNC(=O)c1cc(-c2cnc3cc(-c4ccc(C(=O)NC)c(F)c4)c(O[C@H]4CCOC4)nn23)c(F)c(C(F)F)c1 [Example 36, (S)-3-(Difluoromethyl)-4-fluoro-5-(7-(3-fluoro-4-(methylcarbamoyl)phenyl)-6-((tetrahydrofuran-3-yl)oxy)imidazo[1,2-b]pyridazin-3-yl)-N-methylbenzamide] | 7.00 to 8.00 | 6.40 to 7.00 | 7.00 to 8.00
16 | CNC(=O)c1cc(CO)c(F)c(-c2cnc3cc(-c4cnn(C)c4)c(O[C@H]4CCOC4)nn23)c1 [Example 40, (S)-4-Fluoro-3-(hydroxymethyl)-N-methyl-5-(7-(1-methyl-1H-pyrazol-4-yl)-6-((tetrahydrofuran-3-yl)oxy)imidazo[1,2-b]pyridazin-3-yl)benzamide] | > 8.00 | 7.00 to 8.00 | > 8.00
17 | CNC(=O)c1cc(CC#N)c(F)c(-c2cnc3cc(-c4cnn(C)c4)c(O[C@H]4CCOC4)nn23)c1 [Example 44, (S)-3-(Cyanomethyl)-4-fluoro-N-methyl-5-(7-(1-methyl-1H-pyrazol-4-yl)-6-((tetrahydrofuran-3-yl)oxy)imidazo[1,2-b]pyridazin-3-yl)benzamide] | > 8.00 | 6.40 to 7.00 | 7.00 to 8.00
18 | CNC(=O)c1cc(CN2CCCC2)c(F)c(-c2cnc3cc(-c4cnn(C)c4)c(O[C@H]4CCOC4)nn23)c1 [Example 45, (S)-4-Fluoro-N-methyl-3-(7-(1-methyl-1H-pyrazol-4-yl)-6-((tetrahydrofuran-3-yl)oxy)imidazo[1,2-b]pyridazin-3-yl)-5-(pyrrolidin-1-ylmethyl)benzamide] | 7.00 to 8.00 | 7.00 to 8.00 | 7.00 to 8.00
19 | CC(C)n1cc(-c2cc3ncc(-c4cccc(F)c4F)n3nc2O[C@H]2CCOC2)cn1 [Example 46, (S)-3-(2,3-Difluorophenyl)-7-(1-isopropyl-1H-pyrazol-4-yl)-6-((tetrahydrofuran-3-yl)oxy)imidazo[1,2-b]pyridazine] | 7.00 to 8.00 | 6.40 to 7.00 | 7.00 to 8.00
20 | CCOc1cccc(-c2cnc3cc(-c4cnn(C)c4)c(O[C@H]4CCOC4)nn23)c1 [Example 47, (S)-3-(3-Ethoxyphenyl)-7-(1-methyl-1H-pyrazol-4-yl)-6-((tetrahydrofuran-3-yl)oxy)imidazo[1,2-b]pyridazine] | 7.00 to 8.00 | 7.00 to 8.00 | 7.00 to 8.00
21 | CC(C)(O)Cn1cc(-c2cc3ncc(-c4cccc(-c5ccc(F)cc5F)c4)n3nc2O[C@H]2CCOC2)cn1 [Example 48, (S)-1-(4-(3-(2′,4′-Difluoro-[1,1′-biphenyl]-3-yl)-6-((tetrahydrofuran-3-yl)oxy)imidazo[1,2-b]pyridazin-7-yl)-1H-pyrazol-1-yl)-2-methylpropan-2-ol] | 7.00 to 8.00 | 7.00 to 8.00 | 7.00 to 8.00
22 | CNC(=O)c1cncc(-c2cnc3cc(-c4ccc(NC(=O)OC)cc4)c(O[C@H]4CCOC4)nn23)c1 [Example 67, Methyl (S)-(4-(3-(5-(Methylcarbamoyl)pyridin-3-yl)-6-((tetrahydrofuran-3-yl)oxy)imidazo[1,2-b]pyridazin-7-yl)phenyl)carbamate] | 7.00 to 8.00 | 6.40 to 7.00 | 7.00 to 8.00
